Consider 19 compounds from patent publication US12539292B2, “BRM targeting compounds and associated methods of use” (Arvinas Operations, Inc., priority 2018, dated 2026).

Where two headings read alike, the source gives them in different places. Bounds are passed on as bounds.

The assay deals with T1, BRM (Homo sapiens, UniProt P51531).
T1 construct: In-Cell Western Screen of BRM Degradation in SW1573 Cells; endogenous in cells; host or cells: SW1573
The assay can be described thus: In-cell Western screen of BRM degradation in SW1573 cells (Dmax and DC50). It counts as cell-based. To be noted: BRM degradation, SW1573 cells. Here is the method:
In-Cell Western Screen of BRM Degradation in SW1573 Cells
To assess BRM degradation (Dmax and DC50), cells were seeded at 8000/well in 96-well black/clear-bottom plates in 180 μL DMEM growth media (containing 1% pen-strep, 1% HEPES and 10% FBS) per well. Plates were incubated overnight to allow adhesion. The next morning cells were treated by adding 20 μL of 10× compound (1% DMSO) to appropriate wells and returned to incubator for overnight (18-20 hours). The final DMSO concentration was 0.1%.
For processing, the plates were removed from incubator, the media was removed, and immediately 200 μL of cold (4° C.) DPBS was added to all wells. DPBS was then removed, and 50 μL of 4% paraformaldehyde (PFA) in DPBS (4° C.) was added to all wells, and the plates were incubated at room temperature for 20 minutes. PFA was then removed, and 200 μL of TBS-T containing 0.5% Triton X-100 was added to all wells, and the plates were incubated at room temperature for 30 minutes. TBS-T containing 0.5% Triton X-100 was then removed, and 50 μL of Li-Cor blocking solution was added, and the plates were incubated at room temperature for a minimum of one hour.
The next day plates were washed three times with TBS-T, 200 μL per well. Fifty (50) μL of secondary antibody cocktail in LI-COR blocking solution (anti-rabbit_800 nm and anti-mouse_680 nm) was added to all wells (diluted 1:5000). The plates were incubated at room temperature for at least one hour while protected from light. The plates were washed twice with TBS-T, 200 μL per well.
To read each plate TBS-T was removed, and each plate was inverted tapped on a paper towel. The plates were read on the LI-COR Odyssey with default intensity settings of 5.0 for both channels. LI-COR images were analyzed with the in-cell Western feature of Image Studio Lite.

The mark [1] stands for this setting: Table 2D, read-out: **Dmax (%) (% degraded).

T1 sequence (P51531 whole entry): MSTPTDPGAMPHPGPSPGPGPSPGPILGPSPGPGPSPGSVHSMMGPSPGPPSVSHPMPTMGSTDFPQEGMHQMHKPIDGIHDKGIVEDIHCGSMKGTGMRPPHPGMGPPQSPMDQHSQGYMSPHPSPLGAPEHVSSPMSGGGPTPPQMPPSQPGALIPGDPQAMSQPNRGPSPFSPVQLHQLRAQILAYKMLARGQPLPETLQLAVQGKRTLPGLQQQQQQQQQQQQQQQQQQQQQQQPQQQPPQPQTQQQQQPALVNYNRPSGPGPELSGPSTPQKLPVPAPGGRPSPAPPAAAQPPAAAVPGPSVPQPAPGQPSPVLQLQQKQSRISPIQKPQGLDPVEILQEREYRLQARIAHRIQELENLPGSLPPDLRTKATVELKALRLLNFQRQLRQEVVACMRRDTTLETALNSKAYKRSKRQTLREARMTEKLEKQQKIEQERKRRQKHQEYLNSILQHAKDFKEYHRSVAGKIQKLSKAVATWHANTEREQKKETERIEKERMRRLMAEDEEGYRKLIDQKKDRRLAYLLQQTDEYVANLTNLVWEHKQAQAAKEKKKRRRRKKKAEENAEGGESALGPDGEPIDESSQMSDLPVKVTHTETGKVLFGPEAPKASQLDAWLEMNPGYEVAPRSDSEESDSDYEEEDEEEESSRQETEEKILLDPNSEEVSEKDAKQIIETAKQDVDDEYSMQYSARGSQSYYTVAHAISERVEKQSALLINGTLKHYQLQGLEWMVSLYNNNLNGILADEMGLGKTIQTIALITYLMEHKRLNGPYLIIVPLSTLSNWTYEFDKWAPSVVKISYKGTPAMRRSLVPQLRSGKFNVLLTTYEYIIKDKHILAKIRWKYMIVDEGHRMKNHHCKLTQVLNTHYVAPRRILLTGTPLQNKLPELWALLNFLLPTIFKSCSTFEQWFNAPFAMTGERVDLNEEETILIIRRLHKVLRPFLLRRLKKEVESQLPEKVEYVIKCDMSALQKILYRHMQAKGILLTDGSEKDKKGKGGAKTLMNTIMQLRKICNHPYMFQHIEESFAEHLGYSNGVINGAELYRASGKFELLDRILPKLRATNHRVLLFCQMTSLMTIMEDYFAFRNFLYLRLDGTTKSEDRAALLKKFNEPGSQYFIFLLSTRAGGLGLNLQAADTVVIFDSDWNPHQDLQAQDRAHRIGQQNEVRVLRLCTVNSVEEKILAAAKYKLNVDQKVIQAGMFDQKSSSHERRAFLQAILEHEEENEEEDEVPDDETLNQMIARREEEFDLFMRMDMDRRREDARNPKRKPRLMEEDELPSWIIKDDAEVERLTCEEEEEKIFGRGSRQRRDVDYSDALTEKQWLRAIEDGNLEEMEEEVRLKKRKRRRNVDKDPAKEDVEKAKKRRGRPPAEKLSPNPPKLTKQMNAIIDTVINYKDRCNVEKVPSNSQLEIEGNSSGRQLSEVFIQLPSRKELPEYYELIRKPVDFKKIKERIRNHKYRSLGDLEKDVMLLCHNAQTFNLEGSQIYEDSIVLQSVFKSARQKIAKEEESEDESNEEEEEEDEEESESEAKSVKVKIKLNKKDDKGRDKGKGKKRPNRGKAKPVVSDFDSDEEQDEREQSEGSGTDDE

Regarding `Cc1ncsc1-c1ccc([C@H](C)NC(=O)[C@@H]2C[C@@H](O)CN2C(=O)[C@H](c2cc(OCC[C@@H]3CCN(C[C@H]4C[C@H](Oc5cc(N6C7CCC6CN(c6cc(-c8ccccc8O)nnc6N)C7)ccn5)C4)[C@@H](C)C3)no2)C(C)C)cc1` (racemic) [compound 581, (2S,4R)-1-((2S)-2-(3-(2-((2S,4R)-1-(((1r,3S)-3-((4-(3-(3-amino-6-(2-hydroxyphenyl)pyridazin-4-yl)-3,8-diazabicyclo[3.2.1]octan-8-yl)pyridin-2-yl)oxy)cyclobutyl)methyl)-2-methylpiperidin-4-yl)ethoxy)isoxazol-5-yl)-3-methylbutanoyl)-4-hydroxy-N-((S)-1-(4-(4-methylthiazol-5-yl)phenyl)ethyl)pyrrolidine-2-carboxamide], the Dmax under setting [1] was greater than 75%. For the same compound, the half-maximal degradation concentration (DC50) (Table 2D, read-out: *DC50) is less than 2.5 nM. For `Cc1ncsc1-c1ccc([C@H](C)NC(=O)[C@@H]2C[C@@H](O)CN2C(=O)[C@@H](c2cc(OCC[C@@H]3CCN(C[C@H]4C[C@H](Oc5cc(N6C7CCC6CN(c6cc(-c8ccccc8O)nnc6N)C7)ccn5)C4)[C@@H](C)C3)no2)C(C)C)cc1` (racemic) [compound 582, (2S,4R)-1-((2R)-2-(3-(2-((2S,4R)-1-(((1r,3S)-3-((4-(3-(3-amino-6-(2-hydroxyphenyl)pyridazin-4-yl)-3,8-diazabicyclo[3.2.1]octan-8-yl)pyridin-2-yl)oxy)cyclobutyl)methyl)-2-methylpiperidin-4-yl)ethoxy)isoxazol-5-yl)-3-methylbutanoyl)-4-hydroxy-N-((S)-1-(4-(4-methylthiazol-5-yl)phenyl)ethyl)pyrrolidine-2-carboxamide], under setting [1], the maximal degradation (Dmax) was greater than 75%. Also, where the note is “Table 2D, read-out: *DC50”, the DC50 was less than 2.5 nM. Turning to `Cc1ncsc1-c1ccc([C@H](C)NC(=O)[C@@H]2C[C@@H](O)CN2C(=O)C(c2cc(OCCN3[C@H](C)C[C@H](O[C@H]4C[C@H](Oc5cc(N6C7CCC6CN(c6cc(-c8ccccc8O)nnc6N)C7)ccn5)C4)C[C@@H]3C)no2)C(C)C)cc1` (mixture of isomers) [compound 635, (2S,4R)-1-(2-(3-(2-((2S,4S,6R)-4-((1r,3R)-3-((4-(3-(3-amino-6-(2-hydroxyphenyl)pyridazin-4-yl)-3,8-diazabicyclo[3.2.1]octan-8-yl)pyridin-2-yl)oxy)cyclobutoxy)-2,6-dimethylpiperidin-1-yl)ethoxy)isoxazol-5-yl)-3-methylbutanoyl)-4-hydroxy-N-((S)-1-(4-(4-methylthiazol-5-yl)phenyl)ethyl)pyrrolidine-2-carboxamide], under “read-out: DC50”, the half-maximal degradation concentration (DC50) is less than 2.5 nM. In addition, the Dmax (read-out: Dmax (% degraded)) is greater than 75%. Regarding `Cc1ncsc1-c1ccc([C@H](C)NC(=O)[C@@H]2C[C@@H](O)CN2C(=O)[C@@H](c2cc(N3CCC(CN4CCC([C@H](C)n5cc(-c6cc(-c7ccccc7O)nnc6N)cn5)CC4)CC3)no2)C(C)C)cc1` (single isomer, unassigned) [compound 573], the Dmax under setting [1] is greater than 75%. The 50% degradation concentration (DC50) (Table 2D, read-out: *DC50) is less than 2.5 nM. For `Cc1ncsc1-c1ccc([C@H](C)NC(=O)[C@@H]2C[C@@H](O)CN2C(=O)[C@@H](c2cc(N3CCC(CN4CCC([C@@H](C)n5cc(-c6cc(-c7ccccc7O)nnc6N)cn5)CC4)CC3)no2)C(C)C)cc1` (single isomer, unassigned) [compound 574] the same measures were greater than 75% and less than 2.5 nM. Turning to `Cc1ncsc1-c1ccc([C@H](C)NC(=O)[C@@H]2C[C@@H](O)CN2C(=O)[C@H](c2cc(OCC[C@@H]3CCN(C[C@H]4C[C@H](Oc5cc(N6C7CCC6CN(c6cc(-c8ccccc8O)nnc6N)C7)ccn5)C4)[C@H](C)[C@@H]3C)no2)C(C)C)cc1` (single isomer, unassigned) [compound 583], for the setting “Table 2D, read-out: *DC50”, the DC50 is greater than 30 nM.

Consider `Cc1ncsc1-c1ccc([C@H](C)NC(=O)[C@@H]2C[C@@H](O)CN2C(=O)[C@@H](c2cc(OCC[C@@H]3CCN(C[C@H]4C[C@H](Oc5cc(N6C7CCC6CN(c6cc(-c8ccccc8O)nnc6N)C7)ccn5)C4)[C@H](C)[C@@H]3C)no2)C(C)C)cc1` (single isomer, unassigned) [compound 584], for which the Dmax under setting [1] is greater than 75%. For the setting “Table 2D, read-out: *DC50”, the DC50 was less than 2.5 nM. The matching figures for `Cc1ncsc1-c1ccc([C@H](C)NC(=O)[C@@H]2C[C@@H](O)CN2C(=O)[C@H](c2cc(OCC[C@H]3CCN(C[C@H]4C[C@H](Oc5cc(N6C7CCC6CN(c6cc(-c8ccccc8O)nnc6N)C7)ccn5)C4)[C@@H](C)[C@H]3C)no2)C(C)C)cc1` (single isomer, unassigned) [compound 585]: greater than 75% and 2.5 to 10 nM.

Regarding `Cc1ncsc1-c1ccc([C@H](C)NC(=O)[C@@H]2C[C@@H](O)CN2C(=O)[C@@H](c2cc(OCC[C@H]3CCN(C[C@H]4C[C@H](Oc5cc(N6C7CCC6CN(c6cc(-c8ccccc8O)nnc6N)C7)ccn5)C4)[C@@H](C)[C@H]3C)no2)C(C)C)cc1` (single isomer, unassigned) [compound 586], the Dmax under setting [1] is greater than 75%. Besides, the half-maximal degradation concentration (DC50) (Table 2D, read-out: *DC50) was less than 2.5 nM.

Regarding `Cc1ncsc1-c1ccc([C@H](C)NC(=O)[C@@H]2C[C@@H](O)CN2C(=O)[C@H](c2cc(N3CCC(OC4CCN(CC5CC(CN6CCC([C@H](C)n7cc(-c8cc(-c9ccccc9O)nnc8N)cn7)CC6)C5)CC4)CC3)no2)C(C)C)cc1` (single isomer, unassigned) [compound 593], the Dmax under setting [1] was greater than 75%. The half-maximal degradation concentration (DC50) (Table 2D, read-out: *DC50) was less than 2.5 nM. The matching figures for `Cc1ncsc1-c1ccc([C@H](C)NC(=O)[C@@H]2C[C@@H](O)CN2C(=O)[C@@H](c2cc(N3CCC(OC4CCN(CC5CC(CN6CCC([C@H](C)n7cc(-c8cc(-c9ccccc9O)nnc8N)cn7)CC6)C5)CC4)CC3)no2)C(C)C)cc1` (single isomer, unassigned) [compound 594]: greater than 75% and less than 2.5 nM.

Turning to `Cc1ncsc1-c1ccc([C@H](C)NC(=O)[C@@H]2C[C@@H](O)CN2C(=O)[C@H](c2cc(N3CCC(OC4CCN(CC5CC(CN6CCC([C@@H](C)n7cc(-c8cc(-c9ccccc9O)nnc8N)cn7)CC6)C5)CC4)CC3)no2)C(C)C)cc1` (single isomer, unassigned) [compound 595], the greatest degradation seen (Dmax) under setting [1] is greater than 75%. Further, the half-maximal degradation concentration (DC50) (Table 2D, read-out: *DC50) was less than 2.5 nM. Turning to `Cc1ncsc1-c1ccc([C@H](C)NC(=O)[C@@H]2C[C@@H](O)CN2C(=O)[C@@H](c2cc(N3CCC(OC4CCN(CC5CC(CN6CCC([C@@H](C)n7cc(-c8cc(-c9ccccc9O)nnc8N)cn7)CC6)C5)CC4)CC3)no2)C(C)C)cc1` (single isomer, unassigned) [compound 596], under setting [1], the Dmax was greater than 75%. For the same compound, for the setting “Table 2D, read-out: *DC50”, the half-maximal degradation concentration (DC50) was less than 2.5 nM. `Cc1ncsc1-c1ccc([C@H](C)NC(=O)[C@@H]2C[C@@H](O)CN2C(=O)[C@@H](c2cc(OCCN3CC[C@@H](O[C@H]4C[C@H](Oc5cc(N6C7CCC6CN(c6cc(-c8ccccc8O)nnc6N)C7)ccn5)C4)C[C@H]3C)no2)C(C)C)cc1` (single isomer, unassigned) [compound 634]: the half-maximal degradation concentration (DC50) (read-out: DC50) was less than 2.5 nM. For the same compound, the maximal degradation (Dmax) (read-out: Dmax (% degraded)) was greater than 75%. For `Cc1ncsc1-c1ccc([C@H](C)NC(=O)[C@@H]2C[C@@H](O)CN2C(=O)[C@@H](c2cc(OCCN3CC[C@H](O[C@H]4C[C@H](Oc5cc(N6C7CCC6CN(c6cc(-c8ccccc8O)nnc6N)C7)ccn5)C4)C[C@@H]3C)no2)C(C)C)cc1` (single isomer, unassigned) [compound 636] the same measures were less than 2.5 nM and greater than 75%. The matching figures for `Cc1nccn1-c1ccc([C@H](C)NC(=O)[C@@H]2C[C@@H](O)CN2C(=O)[C@H](c2cc(N3CCC(CN4CCC(O[C@H]5C[C@H](C#C[C@@H](C)n6cc(-c7cc(-c8ccccc8O)nnc7N)cn6)C5)CC4)CC3)no2)C(C)C)cc1` (single isomer, unassigned) [compound 637]: 2.5 to 10 nM and greater than 75%. As to `Cc1nccn1-c1ccc([C@H](C)NC(=O)[C@@H]2C[C@@H](O)CN2C(=O)[C@@H](c2cc(N3CCC(CN4CCC(O[C@H]5C[C@H](C#C[C@@H](C)n6cc(-c7cc(-c8ccccc8O)nnc7N)cn6)C5)CC4)CC3)no2)C(C)C)cc1` (single isomer, unassigned) [compound 638], the DC50 (read-out: DC50) was less than 2.5 nM. In addition, the Dmax (read-out: Dmax (% degraded)) is greater than 75%. For `Cc1ncsc1-c1ccc([C@H](C)NC(=O)[C@@H]2C[C@@H](O)CN2C(=O)[C@@H](c2cc(N3CCC[C@H](CN4CCC(O[C@H]5C[C@H](Oc6cc(N7C8CCC7CN(c7cc(-c9ccccc9O)nnc7N)C8)ccn6)C5)CC4)C3)no2)C(C)C)cc1` (single isomer, unassigned) [compound 656] the same measures were less than 2.5 nM and greater than 75%. The matching figures for `Cc1ncsc1-c1ccc([C@H](C)NC(=O)[C@@H]2C[C@@H](O)CN2C(=O)[C@@H](c2cc(N3CCC[C@@H](CN4CCC(O[C@H]5C[C@H](Oc6cc(N7C8CCC7CN(c7cc(-c9ccccc9O)nnc7N)C8)ccn6)C5)CC4)C3)no2)C(C)C)cc1` (single isomer, unassigned) [compound 657]: less than 2.5 nM and greater than 75%.
